Data on 24 molecules can be found in US11845752B2, “Substituted imidazo[1,5-a]pyrazines for the treatment of hepatitis B” (ALIGOS THERAPEUTICS, INC., priority 2020, dated 2023).

Bounds are passed on as bounds.

For orientation: EC50 means the concentration that produces a half-maximal response.

In one assay the test system is HBV. Kind of assay: HBV-DNA antiviral assay using HepG2.117 cells (intracellular HBV DNA by qPCR). It counts as cell-based, HBV genotype D. Conditions: HBV DNA inhibition, 3 days incubation, read-out: EC50. The method in brief:
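HepG2.117 cells (stably integrated genotype D HBV, Tet-off) seeded without doxycycline to induce pgRNA, then treated next day with 9 concentrations (4-fold dilutions, 2% DMSO) for 3 days at 37 °C. Intracellular HBV DNA quantified by qPCR against standard curve, viability by ATP content; inhibition relative to DMSO control, EC50/EC90/CC50 by non-linear regression.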
(In general: In qPCR the cycle at which signal appears reflects the starting amount.)
Consider `CC1Cn2c(c(C(=O)NCc3ccccc3-c3ccncn3)n(-c3ccc(N4CC5(CN(C)C5)C4)cc3)c2=O)CN1C(=O)c1ccc(Br)c(C(F)(F)F)c1` (single isomer, unassigned) [Compound 73b, (6S*)-7-[4-bromo-3-(trifluoromethyl)benzoyl]-6-methyl-2-(4-{6-methyl-2,6-diazaspiro[3.3]heptan-2-yl}phenyl)-3-oxo-N-{[2-(pyrimidin-4-yl)phenyl]methyl}-5H,6H,8H-imidazo[1,5-a]pyrazine-1-carboxamide], for which the EC50 is 50 to 500 nM. For the molecule `CC1Cn2c(c(C(=O)NCc3ccccc3-c3ccncn3)n(-c3ccc(N4CC5(CCN5C)C4)cc3)c2=O)CN1C(=O)c1ccc(Br)c(C(F)(F)F)c1` (single isomer, unassigned) [Compound 84b], the EC50 is less than 50 nM.

Take `CC1Cn2c(c(C(=O)NCc3c(F)cccc3-c3nccc(N)n3)n(-c3ccc(OC4CC4)cc3)c2=O)CN1C(=O)c1ccc(Br)c(C(F)(F)F)c1` (single isomer, unassigned) [Compound 32b]: the EC50 was less than 50 nM. Still for that read-out and setting: in the case of `CC1Cn2c(c(C(=O)NCc3ccccc3-c3ncccn3)n(-c3ccc4oncc4c3)c2=O)CN1C(=O)c1ccc(Br)c(C(F)(F)F)c1` (single isomer, unassigned) [Compound 108b] it was 500 to 5000 nM; in that of `CC1Cn2c(c(C(=O)NCc3c(F)cccc3-c3nccc(N)n3)n(-c3ccc(OC4CC4)cc3)c2=O)CN1C(=O)c1ccc(Br)c(Cl)c1` (single isomer, unassigned) [Compound 31b], less than 50 nM. Still for that read-out and setting: in the case of `CC1Cn2c(c(C(=O)NCc3ccccc3-c3cc(N)cnn3)n(-c3ccc(OC4CC4)cc3)c2=O)CN1C(=O)c1ccc(Br)c(Cl)c1` (single isomer, unassigned) [Compound 42a] it was 500 to 5000 nM; in that of `CC1Cn2c(c(C(=O)NCc3ccccc3-n3cc(F)cn3)n(-c3ccc(N4CCO[C@H](C)C4)cc3)c2=O)CN1C(=O)c1ccc(Br)c(Cl)c1` (stereo in doubt) [Compound 14b, (6S*)-7-(4-bromo-3-chloro-benzoyl)-N-[[2-(4-fluoropyrazol-1-yl)phenyl]methyl]-6-methyl-2-[4-[(2R)-2-methylmorpholin-4-yl]phenyl]-3-oxo-6,8-dihydro-5H-imidazo[1,5-a]pyrazine-1-carboxamide], less than 50 nM.

The assay is the same for the next values; noted with them: Hepatitis B virus, HepG2.117, 72 h, HBV DNA inhibition, 3 days incubation, read-out: EC50.
`CC1Cn2c(c(C(=O)NCc3ccccc3-c3cc(N)ncn3)n(-c3ccc(OC4CC4)cc3)c2=O)CN1C(=O)c1ccc(Br)c(Cl)c1` (single isomer, unassigned) [Compound 8a, N-[[2-(6-aminopyrimidin-4-yl)phenyl]methyl]-7-(4-bromo-3-chloro-benzoyl)-2-[4-(cyclopropoxy)phenyl]-6-methyl-3-oxo-6,8-dihydro-5H-imidazo[1,5-a]pyrazine-1-carboxamide]: the concentration for a half-maximal effect (EC50) lay within 50 to 500 nM. The same measure, in the same setting: the value for `CC1Cn2c(c(C(=O)NCc3c(F)cccc3Cl)n(-c3ccc4c(cnn4CC(F)(F)F)c3)c2=O)CN1C(=O)c1ccc(Br)c(C(F)(F)F)c1` (single isomer, unassigned) [Compound 104a] was less than 50 nM; that for `CC1Cn2c(c(C(=O)NCc3ccccc3-c3ccncn3)n(-c3ccc(N4CCC5(CN(C)C5)C4)cc3)c2=O)CN1C(=O)c1ccc(Br)c(C(F)(F)F)c1` (single isomer, unassigned) [Compound 88a] was less than 50 nM; that for `C[C@H]1Cn2c(c(C(=O)NCc3ccccc3-c3ccncn3)n(-c3ccc4c(cnn4CC(F)(F)F)c3)c2=O)CN1C(=O)c1ccc(Br)c(C(F)(F)F)c1` (stereo in doubt) [Compound 72b, rac-(6S)-7-[4-bromo-3-(trifluoromethyl)benzoyl]-6-methyl-3-oxo-N-[(2-pyrimidin-4-ylphenyl)methyl]-2-[1-(2,2,2-trifluoroethyl)indazol-5-yl]-6,8-dihydro-SH-imidazo[1,5-a]pyrazine-1-carboxamide] was 50 to 500 nM. On the same count and under the same terms, the value for `C[C@H]1Cn2c(c(C(=O)NCc3ccccc3-c3ccccn3)n(-c3ccc(OC[C@@H](O)C(F)(F)F)cc3)c2=O)CN1C(=O)c1ccc(Br)c(C(F)(F)F)c1` (mixture of isomers) [Compound 68b, (6SR)-7-[4-bromo-3-(trifluoromethyl)benzoyl]-6-methyl-3-oxo-N-[[2-(2-pyridyl)phenyl]methyl]-2-[4-[(2R)-3,3,3-trifluoro-2-hydroxy-propoxy]phenyl]-6,8-dihydro-5H-imidazo[1,5-a]pyrazine-1-carboxamide] was less than 50 nM; that for `O=C(NCc1ccccc1)c1c2n(c(=O)n1-c1ccc(N3CCN(CC(F)(F)F)CC3)cc1)CCN(C(=O)c1ccc(Br)c(Cl)c1)C2` [Compound 122, N-benzyl-7-(4-bromo-3-chloro-benzoyl)-3-oxo-2-[4-[4-(2,2,2-trifluoroethyl)piperazin-1-yl]phenyl]-6,8-dihydro-5H-imidazo[1,5-a]pyrazine-1-carboxamide] was 50 to 500 nM; that for `CC1Cn2c(c(C(=O)NCc3ccccc3-c3ccncn3)n(-c3ccc(-n4cccn4)cc3)c2=O)CN1C(=O)c1ccc(Br)c(Cl)c1` (single isomer, unassigned) [Compound 4a, 7-(4-bromo-3-chloro-benzoyl)-6-methyl-3-oxo-2-(4-pyrazol-1-ylphenyl)-N-[(2-pyrimidin-4-ylphenyl)methyl]-6,8-dihydro-5H-imidazo[1,5-a]pyrazine-1-carboxamide] was 50 to 500 nM.

Regarding `CC1Cn2c(c(C(=O)NCc3c(F)cccc3Cl)n(-c3ccc(N4CC5(CN(C)C5)C4)cc3)c2=O)CN1C(=O)c1ccc(Br)c(C(F)(F)F)c1` (single isomer, unassigned) [Compound 106a], the EC50 fell in the range of 50 to 500 nM. Regarding `CNc1cc(-c2ccccc2CNC(=O)c2c3n(c(=O)n2-c2ccc(OC4CC4)cc2)C[C@H](C)N(C(=O)c2ccc(Br)c(Cl)c2)C3)ncn1` (stereo in doubt) [Compound 39b, rac-(6S)-7-(4-bromo-3-chloro-benzoyl)-2-[4-(cyclopropoxy)phenyl]-6-methyl-N-[[246-(methylamino)pyrimidin-4-yl]phenyl]methyl]-3-oxo-6,8-dihydro-5H-imidazo[1,5-a]pyrazine-1-carboxamide], the EC50 is less than 50 nM. `CC1Cn2c(c(C(=O)NCc3ccccc3-c3ncccn3)n(-c3ccc(OC[C@@H](O)C(F)(F)F)cc3)c2=O)CN1C(=O)c1ccc(Br)c(C(F)(F)F)c1` (stereo in doubt) [Compound 71a, (6R*)-7-[4-bromo-3-(trifluoromethyl)benzoyl]-6-methyl-3-oxo-N-{[2-(pyrimidin-2-yl)phenyl]methyl}-2-{4-[(2R)-3,3,3-trifluoro-2-hydroxypropoxy]phenyl}-5H,6H,8H-imidazo[1,5-a]pyrazine-1-carboxamide]: the EC50 was less than 50 nM. Consider `CC1(O)CN(c2ccc(-n3c(C(=O)NCc4ccccc4)c4n(c3=O)CCN(C(=O)c3ccc(Br)c(Cl)c3)C4)cc2)C1` [Compound 117, N-benzyl-7-(4-bromo-3-chloro-benzoyl)-2-[4-(3-hydroxy-3-methyl-azetidin-1-yl)phenyl]-3-oxo-6,8-dihydro-5H-imidazo[1,5-a]pyrazine-1-carboxamide], for which the EC50 lay in the range of 50 to 500 nM. Same read-out and setting: the value for `O=C(NCc1ccccc1)c1c2n(c(=O)n1-c1ccc(N3CCOC4(CC4)C3)cc1)CCN(C(=O)c1ccc(Br)c(Cl)c1)C2` [Compound 120, N-benzyl-7-(4-bromo-3-chloro-benzoyl)-2-[4-(4-oxa-7-azaspiro[2.5]octan-7-yl)phenyl]-3-oxo-6,8-dihydro-5H-imidazo[1,5-a]pyrazine-1-carboxamide] was 50 to 500 nM; that for `CC1Cn2c(c(C(=O)NCc3c(F)cccc3-c3ccncn3)n(-c3ccc(OC4CC4)cc3)c2=O)CN1C(=O)c1ccc(Br)c(Cl)c1` (single isomer, unassigned) [Compound 2a, (S*)-7-(4-bromo-3-chlorobenzoyl)-2-(4-cyclopropoxyphenyl)-N-(2-fluoro-6-(pyrimidin-4-yl)benzyl)-6-methyl-3-oxo-2,3,5,6,7,8-hexahydroimidazo[1,5-a]pyrazine-1-carboxamide] was 50 to 500 nM; that for `Cc1nnc(-c2ccccc2CNC(=O)c2c3n(c(=O)n2-c2ccc(OC4CC4)cc2)CC(C)N(C(=O)c2ccc(Br)c(C#N)c2)C3)o1` (single isomer, unassigned) [Compound 5a, (6S*)-7-(4-bromo-3-cyano-benzoyl)-2-[4-(cyclopropoxy)phenyl]-6-methyl-N-[[2-(5-methyl-1,3,4-oxadiazol-2-yl)phenyl]methyl]-3-oxo-6,8-dihydro-5H-imidazo[1,5-a]pyrazine-1-carboxamide] was 500 to 5000 nM. Take `O=C(NCc1ccccc1)c1c2n(c(=O)n1-c1ccc3c(ccn3CCO)c1)CCN(C(=O)c1ccc(Br)c(Cl)c1)C2` [Compound 128, N-benzyl-7-(4-bromo-3-chloro-benzoyl)-2-[1-(2-hydroxyethyl)indol-5-yl]-3-oxo-6,8-dihydro-5H-imidazo[1,5-a]pyrazine-1-carboxamide]: the concentration giving a half-maximal response (EC50) was 50 to 500 nM. The same measure, in the same setting: in the case of `C[C@@H]1Cn2c(c(C(=O)NCc3ccccc3-c3ccccn3)n(-c3ccc(OC[C@@](C)(O)C(F)(F)F)cc3)c2=O)CN1C(=O)c1ccc(Br)c(C(F)(F)F)c1` (stereo in doubt) [Compound 89a, rac-(6R)-7-[4-bromo-3-(trifluoromethyl)benzoyl]-6-methyl-3-oxo-N-[[2-(2-pyridyl)phenyl]methyl]-2-[4-[rac-(2R)-3,3,3-trifluoro-2-hydroxy-2-methyl-propoxy]phenyl]-6,8-dihydro-5H-imidazo[1,5-a]pyrazine-1-carboxamide] it was less than 50 nM.

In the case of `C[C@@H]1Cn2c(c(C(=O)NCc3ccccc3-c3ccncn3)n(-c3ccc(OC[C@](C)(O)C(F)(F)F)cc3)c2=O)CN1C(=O)c1ccc(Br)c(C(F)(F)F)c1` (stereo in doubt) [Compound 83a, rac-(6R)-7-[4-bromo-3-(trifluoromethyl)benzoyl]-6-methyl-3-oxo-N-[(2-pyrimidin-4-ylphenyl)methyl]-2-[4-[rac-(2S)-3,3,3-trifluoro-2-hydroxy-2-methyl-propoxy]phenyl]-6,8-dihydro-SH-imidazo[1,5-a]pyrazine-1-carboxamide], the concentration giving a half-maximal response (EC50) was in the range of 50 to 500 nM.
